Numbered stars: 1 amine (or outer) side, 2 acyl side, 3 side chain; on linkers, the order of the positions; unused ones are H or OH. Bridge positions count the residues as written; N and C are the ends. Square brackets hold non-standard residues; d marks the D form. Peptide text beside a SMILES is read from it. ξ: configuration not given here. ξαMeNle(6-ylidene) = CC(CCCC=[*:3])(N[*:1])C(=O)[*:2]; Nle = CCCC[C@H](N)C(=O)O
Legend:
[1] = system: TCF regulatory sequences (7×TdG) in Colo320 cells; assay: dGFP reporter under TCF regulatory sequences (7×TdG); format: cell-based
Excerpt: A lentiviral reporter vector containing seven TCF/LEF-1 binding motifs and a minimal promoter driving destabilized GFP expression (7×TdG) was derived from the lentiviral vector TOP-dGFP, which contains three TCF/LEF-1 binding motifs (Sukhdeo, K. et al. Proc Natl Acad Sci USA 104, 7516-21 (2007)). Two synthetic complementary oligonucleotides (IDT-DNA) with four TCF/LEF-1 binding motifs (GATCAAAGG) were designed to generate compatible overhanging ends for annealing to an Xba1 restriction site. The oligonucleotides were annealed by heating to 95° C. and slow cooling to room temperature, followed by ligating into the Xba1-linearized TOP-dGFP vector, yielding 7×TdG. For construction of the control vector carrying seven FOP-sites (7×FdG), the 7×TOP cassette was removed from the 7×TdG vector by restriction digesting with Xma1 and Age1. A synthetic cassette carrying seven FOP sites (GGCCAAAGG) but otherwise identical to the removed 7×TOP cassette was inserted, yielding 7×FdG. BCL9 shRNA and control shRNA lentiviral vectors were generated as reported (Sampietro, J. et al. Mol Cell 24, 293-300 (2006)). See results in FIG. 10, FIG. 11B. […]
Colo320 cells were subjected to infection for 72 h with either 7×TdG or 7×FdG lentivirus, and the transduced and control non-transduced cells were trypsinized, washed, and then analyzed on a FACSaria flow sorter. […]

Colo320 cells = assay: Cellular invasion assay, Matrigel Boyden chambers; format: cell-based; conditions: 5 μM
Protocol: Angiogenesis was evaluated as previously described (Mani, M. et al. Cancer Res 69, 7577-86 (2009)) using an in vitro angiogenesis assay kit (Millipore). For capillary tube formation analysis, HUVEC were cultured on polymerized matrix gel and exposed to supernatant media collected from Colo320 or MM1S cells treated with vehicle (0.5% DMSO), SAH-BCL9B peptides (5 μM) for 24 h. The number of capillary tubes formed after 5 h treatment at 37° C. was determined by counting 5 randomly selected fields at 40× magnification, according to manufacture's instructions. HUVEC cultured in VEGF media and VEGF-free media were used as positive and negative controls, respectively. Cellular invasion assays were performed using Matrigel Boyden chambers (BD Biosciences) as described (Mani, M. et al. Cancer Res 69, 7577-86 (2009)). The reported data represent the average of three independent experiments performed in triplicate. See results in FIG. 3H-FIG. 3I.

[2] = system: GFP-positive INA-6 cells in human bone chips of SCID-hu mice; assay: SCID-hu murine model of human MM; format: in vivo; conditions: for shuIL-6R serum levels: 5 mg/kg local injection every other day; for tumor cell invasion outside the bone chip: histologic analysis
Protocol: In a second in vivo model, the impact of SAH-BCL9B treatment on the growth of INA-6 MM cells within a human bone graft implanted in the flank of SCID-hu mice was examined (Tassone, P. et al. Blood 106, 713-6 (2005)). GFP-labeled INA-6 cells (5×10^6), which express both BCL9 and β-catenin and are suppressed by SAH-BCL9B in vitro were injected into bone grafts four weeks after implantation. Two days later, cohorts of mice (n=5) were treated by local injection with vehicle (2.5% DMSO in D5W), SAH-BCL9B, or SAH-BCL9B(R359E) peptides (5 mg/kg) for a total of 10 doses administered every other day. To monitor tumor burden, the serum level of soluble human interleukin-6 receptor (shuIL-6R) was measured, which is first detectable 3-4 weeks after INA-6 tumor engraftment. […] Mice were sacrificed 33 days after INA-6 cell injection and evaluated for MM tumor burden by fluorescence imaging, histologic analysis, and anti-CD34 staining. […] Similar to the CRC model, local angiogenesis was suppressed in SAH-BCL9B-treated SCID-hu mice, as monitored by anti-CD34 staining and blood vessel quantitation (FIG. 4I).
For the SCID-hu murine model of human MM, human fetal bone grafts measuring 1.5×0.5 cm were subcutaneously implanted into eight week old male CB-17 SCID mice (Taconic) as previously described (Tassone, P. et al. Blood 106, 713-6 (2005)). Four weeks after bone implantation, 5×10^6 GFP-positive INA-6 MM cells were injected directly into each bone implant. Two days later, mice were treated with 100 μl injections of vehicle (2.5% DMSO in D5W) or SAH-BCL9 peptides (5 mg/kg) instilled adjacent to the bone chips on alternate days for a total of 10 doses. Mouse sera were serially monitored for shuIL-6R levels by ELISA (R&D Systems). Thirty-three days after tumor cell injection, the mice were sacrificed and analyzed for tumor burden by fluorescence imaging and histologic analysis of the bone grafts. See results in FIG. 4A-FIG. 4I. In addition, TUNEL staining was performed on samples obtained from the mice. […] See results in FIG. 22 and FIG. 23. All animal experiments were performed in accordance with approved protocols of the Dana-Farber Cancer Institute Animal Care and Use Committee.

caspase-3 or PARP = assay: Apoptosis by activated caspase-3 and PARP western blotting; format: cell-based; conditions: western analysis
Protocol: Cell proliferation assays were performed as described (Sukhdeo, K. et al. Proc Natl Acad Sci USA 104, 7516-21 (2007)). Cell viability was measured using the CellTiter-Glo assay (Promega) according to the manufacturer's instructions. Apoptosis was evaluated by activated caspase-3 and PARP western blotting. See results in FIG. 3A-FIG. 3F, FIG. 13, and FIG. 20.

Compound	dGFP expression [1]	migration through Matrigel Boyden chambers (Colo320 cells)	shuIL-6R serum levels ([2]; 10 doses)	tumor cell invasion outside the bone chip ([2]; day 33)	caspase-3 or PARP activation (caspase-3 or PARP)	local angiogenesis (anti-CD34 staining, blood vessel quantitation) ([2]; 5 mg/kg local, 10 doses)	tumor burden within the bone chip ([2]; 5 mg/kg local, 10 doses, day 33)	TUNEL positivity in myeloma tumor tissue ([2]; bone chips bearing INA-6 cells)
SAH-BCL9B(R359E): SEQ ID NO: 7: LSQEQLEHEERSLXTLRXIQRBLF; reverse polarity point mutant, negative control of SAH-BCL9B	little to no effect	no effect	progressive increase in shuIL-6R levels	invasion into the surrounding soft tissue	–	–	–	–
CCCC[C@H](NC(=O)[C@H](CCCNC(=N)N)NC(=O)[C@H](CCC(N)=O)NC(=O)[C@@H](NC(=O)C1(C)CCCC=CCCCC(C)(NC(=O)[C@H](CC(C)C)NC(=O)[C@H](CO)NC(=O)[C@H](CCCNC(=N)N)NC(=O)[C@H](CCC(=O)O)NC(=O)[C@H](CCCNC(=N)N)NC(=O)[C@H](Cc2c[nH]cn2)NC(=O)[C@H](CCC(=O)O)NC(=O)[C@H](CC(C)C)NC(=O)[C@H](CCC(N)=O)NC(=O)[C@H](CCC(=O)O)NC(=O)[C@H](CCC(N)=O)NC(=O)[C@H](CO)NC(=O)[C@H](CC(C)C)NC(C)=O)C(=O)N[C@@H]([C@@H](C)O)C(=O)N[C@@H](CC(C)C)C(=O)N[C@@H](CCCNC(=N)N)C(=O)N1)[C@@H](C)CC)C(=O)N[C@@H](CC(C)C)C(=O)N[C@@H](Cc1ccccc1)C(N)=O (stereo partly drawn) [SAH-BCL9B] (Ac-LSQEQLEHRERSL[ξαMeNle(6-ylidene)]TLR[ξαMeNle(6-ylidene)]IQR[Nle]LF-NH2; staple 14-18)	dose-responsively blocked dGFP expression	blocked the migration	low to undetectable levels	resided within the confines of the bone chip	did not activate caspase-3 or PARP	suppressed	significantly reduced	notably increased TUNEL positivity
